Test [1] deals with T1, human toll like receptor 7 (hTLR7) (Homo sapiens, UniProt Q9NYK1).
T1 construct: host or cells: HEK293 (HEK-Blue hTLR7)
T1 sequence (Q9NYK1 27-1049): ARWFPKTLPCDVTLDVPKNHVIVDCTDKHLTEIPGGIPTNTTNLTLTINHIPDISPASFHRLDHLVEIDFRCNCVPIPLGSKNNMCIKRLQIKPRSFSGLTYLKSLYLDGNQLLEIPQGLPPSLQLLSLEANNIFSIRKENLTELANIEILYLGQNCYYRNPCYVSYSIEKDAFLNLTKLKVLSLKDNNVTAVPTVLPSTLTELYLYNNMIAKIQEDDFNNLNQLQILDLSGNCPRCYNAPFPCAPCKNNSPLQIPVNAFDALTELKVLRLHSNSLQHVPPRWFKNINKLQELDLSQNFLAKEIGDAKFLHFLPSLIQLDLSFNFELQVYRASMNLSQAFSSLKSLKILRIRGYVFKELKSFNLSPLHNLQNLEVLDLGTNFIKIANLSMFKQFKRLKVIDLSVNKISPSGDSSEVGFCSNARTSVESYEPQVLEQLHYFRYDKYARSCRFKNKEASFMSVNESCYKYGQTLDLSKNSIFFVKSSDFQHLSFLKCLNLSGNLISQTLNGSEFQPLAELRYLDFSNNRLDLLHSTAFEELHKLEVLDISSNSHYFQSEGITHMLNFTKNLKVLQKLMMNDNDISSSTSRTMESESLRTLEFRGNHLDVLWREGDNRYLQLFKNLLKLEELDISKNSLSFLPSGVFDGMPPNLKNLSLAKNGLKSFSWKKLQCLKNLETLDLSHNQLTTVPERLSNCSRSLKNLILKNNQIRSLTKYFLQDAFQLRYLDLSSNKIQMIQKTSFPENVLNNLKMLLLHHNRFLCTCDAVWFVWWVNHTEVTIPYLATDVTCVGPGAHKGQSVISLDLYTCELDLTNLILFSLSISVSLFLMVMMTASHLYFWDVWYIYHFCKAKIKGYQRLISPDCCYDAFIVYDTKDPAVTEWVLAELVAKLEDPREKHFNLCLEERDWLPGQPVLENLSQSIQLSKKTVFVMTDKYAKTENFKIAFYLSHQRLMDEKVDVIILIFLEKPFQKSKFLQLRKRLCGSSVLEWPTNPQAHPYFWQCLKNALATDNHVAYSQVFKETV
In words: hTLR7 in-vitro functional assay (HEK-Blue hTLR7 SEAP reporter). It is filed as cell-based. Conditions: HEK-Blue hTLR7 cells, overnight incubation. The source says:
(§1) To determine the ability of test compounds to activate the human toll like receptor 7 (hTLR7) or human toll like receptor 8 (hTLR8), cell-based reporter systems were utilized. HEK293 cells stably overexpressing either hTLR7 or hTLR8 along with a reporter gene containing an optimized secreted embryonic alkaline phosphatase gene (SEAP), under the control of the IFN-b minimal promoter fused to five NF-kB and AP-1-binding sites, were obtained from Invivogen (HEK-Blue™ hTLR7, cat #Hkb-htlr7; HEK-Blue™ hTLR8, cat #Hkb-htlr8). Stimulation of hTLR7 or hTLR8 in these cells activates NF-kB and AP-1 and induces the production of SEAP which can be quantified using an alkaline phosphatase detection reagent.
(§2) On day one of the assay, compounds were prepared using 11-point half-log serial dilutions from a 10 mM DMSO stock solution and 50 nL was spotted into 384-well plates (PerkinElmer, cat #6007480). Positive and negative controls were also spotted within the assay plate and were used to determine percent effect during the analysis process. After resuspension in DMEM assay media containing FBS heat inactivated (10%), Glutamax (2 mM) and Penicillin/Streptomycin, 10,000 cells/20 ul/well were added to previously prepared compound plates. Plates were incubated overnight (16-20 hrs) at 37° C. in a 5% CO2 environment. Prewetted Microclime lids (Labcyte, LLS-0310) were used to prevent evaporation. On day two of the assay, QUANTI-Blue™ detection reagent was prepared by reconstituting QUANTI-Blue™ powder (InvivoGen, Rep-qb1) with 100 ml of sterile water and allowed to equilibrate to 37° C. for 15 minutes. 20 ul of QUANTI-Blue™ detection reagent was added to each well and plates were incubated at room temperature for 180 min. At the end of the incubation, plates were read on an Envision (Perkin Elmer) plate reader capturing absorbance at 650 nm.
(§3) Using Positive (tool compound) and Negative (DMSO) controls, the percent (%) effect was calculated for each sample using the following equation: […]
(§4) The % effect at each concentration of compound was calculated utilizing the ABase software suite (IBDS) and was relative to the amount of SEAP produced in the positive and negative control wells contained within each assay plate. The concentrations and % effect values for test compounds were fit using a 4-parameter logistic model in ABase and the concentration of compound that produced 50% response (EC50) was calculated.

Test [2] addresses T2, human toll like receptor 8 (hTLR8) (Homo sapiens, UniProt Q9NR97).
T2 construct: host or cells: HEK293 (HEK-Blue hTLR8)
T2 sequence (Q9NR97 27-1041): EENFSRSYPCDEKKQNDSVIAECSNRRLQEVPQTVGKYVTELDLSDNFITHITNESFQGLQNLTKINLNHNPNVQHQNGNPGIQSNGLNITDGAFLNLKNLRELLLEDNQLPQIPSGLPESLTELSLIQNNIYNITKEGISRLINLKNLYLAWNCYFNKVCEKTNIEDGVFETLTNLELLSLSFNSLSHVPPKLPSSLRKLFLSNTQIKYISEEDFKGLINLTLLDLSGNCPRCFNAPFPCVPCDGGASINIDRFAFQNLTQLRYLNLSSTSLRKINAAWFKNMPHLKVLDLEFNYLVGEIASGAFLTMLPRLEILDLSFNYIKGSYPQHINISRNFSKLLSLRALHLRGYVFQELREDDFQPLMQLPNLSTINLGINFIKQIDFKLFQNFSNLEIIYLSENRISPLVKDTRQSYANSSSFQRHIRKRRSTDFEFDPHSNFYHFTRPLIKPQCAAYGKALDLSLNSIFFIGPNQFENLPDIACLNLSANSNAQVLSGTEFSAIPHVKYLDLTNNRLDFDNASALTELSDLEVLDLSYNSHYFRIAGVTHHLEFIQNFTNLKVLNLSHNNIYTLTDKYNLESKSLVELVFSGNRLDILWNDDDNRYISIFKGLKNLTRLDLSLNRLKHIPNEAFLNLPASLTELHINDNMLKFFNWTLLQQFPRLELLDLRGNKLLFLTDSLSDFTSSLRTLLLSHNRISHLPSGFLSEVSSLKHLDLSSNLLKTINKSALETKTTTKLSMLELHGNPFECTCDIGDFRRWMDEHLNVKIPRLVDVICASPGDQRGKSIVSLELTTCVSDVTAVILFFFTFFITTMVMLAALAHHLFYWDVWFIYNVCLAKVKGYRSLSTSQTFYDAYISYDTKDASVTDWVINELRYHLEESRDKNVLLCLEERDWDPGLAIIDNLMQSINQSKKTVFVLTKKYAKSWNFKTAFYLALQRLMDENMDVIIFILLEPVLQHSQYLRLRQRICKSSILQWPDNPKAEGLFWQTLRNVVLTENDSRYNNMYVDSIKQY
Put plainly: hTLR8 in-vitro functional assay (HEK-Blue hTLR8 SEAP reporter). In kind it is cell-based. Conditions: HEK-Blue hTLR8 cells, overnight incubation.
Text: as §1, §2, §3, §4

pEC50: −log10 of the molar value.

Regarding `CCOCc1nc2c(N)nc3cc(CCCN4CCN(C(=O)CCOCCOCCOCCOCCOCCOCCOCCOCCOCCOCCOCCOCCOCCOCCOCCOCCOCCOCCOCCOCCOCCOCCOCCOCCOCCOCCOCCOCCOCCOCCOCCOCCOCCOCCOCCOCCNC(=O)CCOCCOCCOCCOCCNC(=O)O[C@H]5CC[C@@]6(C)C(=CC[C@H]7[C@@H]8CC[C@H]([C@H](C)CCCC(C)C)[C@@]8(C)CC[C@@H]76)C5)CC4)ccc3c2n1CC(C)(CO)CO` [Compound 4, (3beta)-cholest-5-en-3-yl {127-[4-(3-{4-amino-2-(ethoxymethyl)-1-[3-hydroxy-2-(hydroxymethyl)-2-methylpropyl]-1H-imidazo[4,5-c]quinolin-7-yl}propyl)piperazin-1-yl]-15,127-dioxo-3,6,9,12,19,22,25,28,31,34,37,40,43,46,49,52,55,58,61,64,67,70,73,76,79,82,85,88,91,94,97,100,103,106,109,112,115,118,121,124-tetracontaoxa-16-azaheptacosahect-1-yl}carbamate], the pEC50 (usually the EC50 on a negative log10 scale, so that one unit is a factor of ten) in test [1] is 7.22; in test [2], 5.76.

Take `CCCCc1nc2c(N)nc3cc(CCCN4CCN(CCCOCCOCCOCCOCCOCCOCCOCCOCCOCCOCCOCCOCCOCCOCCOCCOCCOCCOCCOCCOCCNC(=O)O[C@H]5CC[C@@]6(C)C(=CC[C@H]7[C@@H]8CC[C@H]([C@H](C)CCCC(C)C)[C@@]8(C)CC[C@@H]76)C5)CC4)ccc3c2n1CC(C)(CO)CO` [Compound 7, (3beta)-cholest-5-en-3-yl {63-[4-(3-{4-amino-2-butyl-1-[3-hydroxy-2-(hydroxymethyl)-2-methylpropyl]-1H-imidazo[4,5-c]quinolin-7-yl}propyl)piperazin-1-yl]-3,6,9,12,15,18,21,24,27,30,33,36,39,42,45,48,51,54,57,60-icosaoxatrihexacont-1-yl}carbamate]: the pEC50 was 6.85 in test [1] and 4.84 in test [2].

`CCCCc1nc2c(N)nc3cc(CCCN4CCN(CCCOCCNC(=O)O[C@H]5CC[C@@]6(C)C(=CC[C@H]7[C@@H]8CC[C@H]([C@H](C)CCCC(C)C)[C@@]8(C)CC[C@@H]76)C5)CC4)ccc3c2n1CC(C)(CO)CO` [Compound 10, (3beta,20R)-cholest-5-en-3-yl (2-{3-[4-(3-{4-amino-2-butyl-1-[3-hydroxy-2-(hydroxymethyl)-2-methylpropyl]-1H-imidazo[4,5-c]quinolin-7-yl}propyl)piperazin-1-yl]propoxy}ethyl)carbamate]: the pEC50 in test [1] is 6.73; in test [2], 5.00.

For the compound `CCCCc1nc2c(N)nc3cc(CCCN4CCN(C(=O)CCOCCOCCOCCOCCOCCOCCOCCOCCOCCOCCOCCOCCNC(=O)CCOCCOCCOCCOCCNC(=O)CCCOc5c(C)c(C)c6c(c5C)CC[C@@](C)(CCC[C@H](C)CCC[C@H](C)CCCC(C)C)O6)CC4)ccc3c2n1CC(C)(CO)CO` [Compound 25, N-{39-[4-(3-{4-amino-2-butyl-1-[3-hydroxy-2-(hydroxymethyl)-2-methylpropyl]-1H-imidazo[4,5-c]quinolin-7-yl}propyl)piperazin-1-yl]-39-oxo-3,6,9,12,15,18,21,24,27,30,33,36-dodecaoxanonatriacontan-1-yl}-17-oxo-20-({(2R)-2,5,7,8-tetramethyl-2-[(4R,8R)-4,8,12-trimethyltridecyl]-3,4-dihydro-2H-1-benzopyran-6-yl}oxy)-4,7,10,13-tetraoxa-16-azaicosan-1-amide], the negative-log EC50 (pEC50) in test [1] is 6.51; in test [2], 5.08.

On to `CCCCc1nc2c(N)nc3cc(CCCN4CCN(C(=O)CCOCCOCCOCCOCCNC(=O)O[C@H]5CC[C@@]6(C)C(=CC[C@H]7[C@@H]8CC[C@H]([C@H](C)CCCC(C)C)[C@@]8(C)CC[C@@H]76)C5)CC4)ccc3c2n1CC(C)(CO)CO` [Compound 12, (3beta,20R)-cholest-5-en-3-yl {15-[4-(3-{4-amino-2-butyl-1-[3-hydroxy-2-(hydroxymethyl)-2-methylpropyl]-1H-imidazo[4,5-c]quinolin-7-yl}propyl)piperazin-1-yl]-15-oxo-3,6,9,12-tetraoxapentadec-1-yl}carbamate], for which the pEC50 was 6.68 in test [1] and 4.71 in test [2].

For `CCOCc1nc2c(N)nc3cc(CCCN4CCN(C(=O)CCOCCOCCOCCOCCOCCOCCOCCOCCOCCOCCOCCOCCNC(=O)CCOCCOCCOCCOCCNC(=O)O[C@H]5CC[C@@]6(C)C(=CC[C@H]7[C@@H]8CC[C@H]([C@H](C)CCCC(C)C)[C@@]8(C)CC[C@@H]76)C5)CC4)ccc3c2n1CC(C)(CO)CO` [Compound 13, (3beta,20R)-cholest-5-en-3-yl {55-[4-(3-{4-amino-2-(ethoxymethyl)-1-[3-hydroxy-2-(hydroxymethyl)-2-methylpropyl]-1H-imidazo[4,5-c]quinolin-7-yl}propyl)piperazin-1-yl]-15,55-dioxo-3,6,9,12,19,22,25,28,31,34,37,40,43,46,49,52-hexadecaoxa-16-azapentapentacont-1-yl}carbamate], the pEC50 in test [1] is 6.65; in test [2] it was 5.48.
